Test results taken from US10765114B2, “4-amino-6-(pyridyl and 2-substitutedphenyl)-picolinates and 6-amino-2-(pyridyl and 2-substitutedphenyl)-pyrimidine-4-carboxylates and their use as herbicides” (Dow AgroSciences LLC, priority 2013, dated 2020).
Read-outs that look alike come from different tables or passages of the source.

Tests used:
[1] = system: Key Broadleaf Weed and Crop Species; experiment: Post-Emergent Test II (Table 5); format: in vivo; conditions: post-emergence, 336 h; for pest or weed control at 70 g/ha: application rate 70 (kg ai/ha; footnote: g ai/ha); for pest or weed control at 140 g/ha: application rate 140 (kg ai/ha; footnote: g ai/ha)
How it was run: (§1)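 Seedlings are raised 7-21 days in Metro-Mix 360 (pH 6.0-6.8) under greenhouse conditions, then sprayed at the first or second true leaf stage. Application is 187 L/ha, with serial rates down to 1/16× of the highest. Plants are subirrigated, and percent injury is rated visually after 14 days.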

[2] = system: Key Grass and Sedge Weeds as well as Grass Crops; experiment: Post-Emergent Test II (Table 6); format: in vivo; conditions: post-emergence, 336 h, 14 days after application; for pest or weed control at 70 g/ha: 70 g ai/ha; for pest or weed control at 140 g/ha: 140 g ai/ha
How it was run: as §1

[3] = Abutilon theophrasti, ABUTH: velvetleaf (Abutilon theophrasti), read-out: Visual Growth Reduction (%) 14 Days After Application ABUTH
[4] = Amaranthus retroflexus, AMARE: redroot pigweed (Amaranthus retroflexus), read-out: Visual Growth Reduction (%) 14 Days After Application AMARE
[5] = Brassica napus, BRSSS: oilseed rape, canola (Brassica napus), read-out: Visual Growth Reduction (%) 14 Days After Application BRSSS
[6] = Chenopodium album, CHEAL: lambsquarters (Chenopodium album), read-out: Visual Growth Reduction (%) 14 Days After Application CHEAL
[7] = Euphorbia heterophylla, EPHHL: wild poinsettia (Euphorbia heterophylla), read-out: Visual Growth Reduction (%) 14 Days After Application EPHHL
[8] = Helianthus annuus, HELAN: sunflower (Helianthus annuus), read-out: Visual Growth Reduction (%) 14 Days After Application HELAN
[9] = Viola tricolor, VIOTR: wild pansy (Viola tricolor), read-out: Visual Growth Reduction (%) 14 Days After Application VIOTR
[10] = CYPSS, read-out: Visual Growth Reduction (%) 14 Days After Application CYPSS
[11] = DIGSA: crabgrass (Digitaria sanguinalis), read-out: Visual Growth Reduction (%) 14 Days After Application DIGSA
[12] = ECHSS, read-out: Visual Growth Reduction (%) 14 Days After Application ECHSS
[13] = ORYSS (crop), read-out: Visual Growth Reduction (%) 14 Days After Application ORYSS
[14] = SETFA: giant foxtail (Setaria faberi), read-out: Visual Growth Reduction (%) 14 Days After Application SETFA
[15] = SORVU: grain sorghum (Sorghum vulgare), read-out: Visual Growth Reduction (%) 14 Days After Application SORVU
[16] = TRZSS (crop), read-out: Visual Growth Reduction (%) 14 Days After Application TRZSS
[17] = ZEAMX: maize, corn (Zea mays), read-out: Visual Growth Reduction (%) 14 Days After Application ZEAMX

Row | Structure (SMILES) | melting point [°C] | pest or weed control at 70 g/ha [1, 3] [%] | pest or weed control at 140 g/ha [1, 3] [%] | pest or weed control at 70 g/ha [1, 4] [%] | pest or weed control at 140 g/ha [1, 4] [%] | pest or weed control at 70 g/ha [1, 5] [%] | pest or weed control at 140 g/ha [1, 5] [%] | pest or weed control at 70 g/ha [1, 6] [%] | pest or weed control at 140 g/ha [1, 6] [%] | pest or weed control at 70 g/ha [1, 7] [%] | pest or weed control at 70 g/ha [1, 8] [%] | pest or weed control at 140 g/ha [1, 8] [%] | pest or weed control at 70 g/ha [1, 9] [%] | pest or weed control at 140 g/ha [1, 9] [%] | pest or weed control at 70 g/ha [2, 10] [%] | pest or weed control at 140 g/ha [2, 10] [%] | pest or weed control at 70 g/ha [2, 11] [%] | pest or weed control at 140 g/ha [2, 11] [%] | pest or weed control at 70 g/ha [2, 12] [%] | pest or weed control at 140 g/ha [2, 12] [%] | further results
1 | COC(=O)c1nc(-c2ccc(C)nc2F)c(F)c(N)c1Cl [Compound 76] | 165 to 166 | 85 to 94 | 85 to 94 | 95 to 100 | 95 to 100 | 85 to 94 | 95 to 100 | 95 to 100 | 95 to 100 | 95 to 100 | 85 to 94 | 95 to 100 | 0 to 29 | 0 to 29 | 0 to 29 | 0 to 29 | 75 to 84 | 85 to 94 | 75 to 84 | 85 to 94 | pest or weed control at 70 g/ha [2, 13]: 0 to 29%; pest or weed control at 140 g/ha [2, 13]: 0 to 29%; pest or weed control at 70 g/ha [2, 14]: 45 to 59%; pest or weed control at 140 g/ha [2, 14]: 60 to 74%; pest or weed control at 70 g/ha [2, 15]: 45 to 59%; pest or weed control at 140 g/ha [2, 15]: 45 to 59%; pest or weed control at 70 g/ha [2, 16]: 30 to 44%; pest or weed control at 140 g/ha [2, 16]: 45 to 59%; pest or weed control at 70 g/ha [2, 17]: 0 to 29%; pest or weed control at 140 g/ha [2, 17]: 95 to 100%
2 | COc1c(N)nc(-c2ccc(C(F)(F)F)nc2)nc1C(=O)O [Compound 5, 6-amino-5-methoxy-2-(6-(trifluoromethyl)pyridin-3-yl)pyrimidine-4-carboxylic acid] | 188 | 0 to 29 | 0 to 29 | 75 to 84 | 85 to 94 | 85 to 94 | 85 to 94 | 0 to 29 | 45 to 59 | 85 to 94 | 60 to 74 | 75 to 84 | 0 to 29 | 30 to 44 | 0 to 29 | 0 to 29 | 60 to 74 | 75 to 84 | 85 to 94 | 85 to 94 | pest or weed control at 140 g/ha [1, 7]: 95 to 100%; pest or weed control at 70 g/ha [2, 13]: 0 to 29%; pest or weed control at 140 g/ha [2, 13]: 0 to 29%; pest or weed control at 70 g/ha [2, 14]: 0 to 29%; pest or weed control at 140 g/ha [2, 14]: 30 to 44%; pest or weed control at 70 g/ha [2, 15]: 0 to 29%; pest or weed control at 140 g/ha [2, 15]: 0 to 29%; pest or weed control at 70 g/ha [2, 16]: 0 to 29%; pest or weed control at 140 g/ha [2, 16]: 30 to 44%; pest or weed control at 70 g/ha [2, 17]: 0 to 29%; pest or weed control at 140 g/ha [2, 17]: 0 to 29%
3 | Nc1c(F)c(-c2ccc(OC(F)F)nc2)nc(C(=O)O)c1Cl [Compound 66] | 134 to 136 | 75 to 84 | 85 to 94 | 0 to 29 | 0 to 29 | 0 to 29 | 0 to 29 | 85 to 94 | 95 to 100 | 95 to 100 | 85 to 94 | 85 to 94 | 60 to 74 | 60 to 74 | 45 to 59 | 45 to 59 | 60 to 74 | 60 to 74 | 75 to 84 | 75 to 84 | pest or weed control at 140 g/ha [1, 7]: 95 to 100%; pest or weed control at 70 g/ha [2, 13]: 0 to 29%; pest or weed control at 140 g/ha [2, 13]: 0 to 29%; pest or weed control at 70 g/ha [2, 14]: 60 to 74%; pest or weed control at 140 g/ha [2, 14]: 60 to 74%; pest or weed control at 70 g/ha [2, 15]: 30 to 44%; pest or weed control at 140 g/ha [2, 15]: 75 to 84%; pest or weed control at 70 g/ha [2, 16]: 45 to 59%; pest or weed control at 140 g/ha [2, 16]: 60 to 74%; pest or weed control at 70 g/ha [2, 17]: 60 to 74%; pest or weed control at 140 g/ha [2, 17]: 60 to 74%
